# Reference: US9834750B2, “Cell-to-cell communication without exchange of mediating diffusible factors or using any physical contact between cells” (priority 2013, dated 2017)
# Assays:
# [1] = biological target: T1, P2X3 (Mus musculus, UniProt Q3UR32); assay: ATP-induced [Ca++]i transients in DRG neurons, Fura-2 fluorescence imaging, dish-in-dish culture; type: cell-based
# T1 construct: endogenous in cells; host or cells: primary lumbosacral DRG neurons of C57BL/6J mice
# T1 sequence (Q3UR32 1-397): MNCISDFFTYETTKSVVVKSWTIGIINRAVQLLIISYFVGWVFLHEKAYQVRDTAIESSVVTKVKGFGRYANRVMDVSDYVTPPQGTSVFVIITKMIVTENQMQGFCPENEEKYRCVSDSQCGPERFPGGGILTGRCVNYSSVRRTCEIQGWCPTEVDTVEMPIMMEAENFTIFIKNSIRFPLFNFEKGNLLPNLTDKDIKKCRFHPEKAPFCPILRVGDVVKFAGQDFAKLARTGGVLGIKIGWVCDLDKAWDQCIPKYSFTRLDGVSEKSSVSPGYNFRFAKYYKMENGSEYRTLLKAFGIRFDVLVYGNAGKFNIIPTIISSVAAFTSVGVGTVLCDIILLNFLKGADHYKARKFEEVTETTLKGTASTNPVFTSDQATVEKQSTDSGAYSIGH
# Experimental: (§1) DRG tissues were obtained from C57BL/6J (Jackson Laboratory; 20 g). Upon arrival, mice were housed in microisolator caging and maintained on 12 hour light/dark cycle in a temperature controlled environment. The mice had access to food and water ad libitum for two weeks. All studies were carried out in accordance with the guidelines of the Institutional Animal Care and Use Committee (IACUC) of Charles R. Drew University of Medicine and Science and the NIH Guide for the Care and Use of Laboratory Animals.
# (§2) Lumbosacral adult DRG cells (level L1-S-1) were collected under sterile technique and placed in ice cold medium Dulbecco's Modified Eagle's Medium (DMEM; Sigma-Aldrich, St. Louis, Mo.). Adhering fat and connective tissue were removed and each isolated DRG tissue was minced with sterile scissors and placed immediately in a medium consisting of 5 ml of DMDM containing 0.5 mg/ml of trypsin (Sigma Type III), 1 mg/ml of collagenase (Sigma Type IA) and 0.1 mg/ml of DNAase (Sigma Type III) and all kept at 37 degrees Centigrade for 30 minutes with agitation.
# (§3) After dissociation of the ganglia soybean trypsin inhibitor (Sigma Type III) was used to terminate cell dissociation. Cell suspensions were centrifuged for one minute at 1000 rpm and the cell pellets were resuspended in DMEM supplemented with 5% fetal bovine serum (FBS), 2 mM glutamine-penicillin-streptomycin mixture, 1 ug/ml DNAase, and 5 ng/ml of NGF (Sigma).
# (§4) Cells were then placed on Matrigel® (Invitrogen, Carlsbad, Calif.) coated 15-mm coverslips (Collaborative Research Co., Bedford Pa.) and kept at 37 degrees Centigrade in a 5% CO2 incubator for 24 hours, then given fresh media and maintained in primary culture until used for experimental procedures.
# (§5) Adjacent culture of SH-SY5Y cells with dorsal root ganglion cells occurred as follows. A dish-in-dish system involving a physically separate outer “surround” cell culture well and a separate inner “center” cell culture well was constructed, both wells capable of being managed independently (FIG. 1).
# (§6) Mouse DRG neuron cells were seeded in the center well which medium consisted of 5% FBS, 2 mM glutamine-penicillin-streptomycin mixture, 1 ug/mL DNAase, and 5 ng/mL NGF for 24 hours at 5% CO2 and 37 degrees Centigrade. Thus, the two cell populations were co-dish-in-dish cultured, separated but adjacent to each other for 12 hours prior to assessing [Ca++]i response to chemical stimulation. […]
# Culture of normal control DRG cells juxtaposed with media containing no cells took place as follows. To establish additional control conditions for assessing the effect of non-diffusible cell-to-cell communication two additional controls were performed: 1) dish-in-dish culture of normal control DRG cells in the center culture well with DRG cell media only in the surround culture well; and 2) dish-in-dish culture of normal control DRG cells in the center culture well with human SH-SY5Y neuroblastoma cell media only in the surround culture well.
# (§7) [Ca++]i fluorescence imaging was carried out. DRG neurons were loaded with fluorescent dye […] Fura-2 AM (Invitrogen, Carlsbad, Calif.) for 45 minutes at 37 degrees Centigrade in HBSS supplemented with 20 mM HEPES, pH 7.4. The cover slips were mounted in an RC-26 recording chamber P-4 (Warner Instruments, Hamden, Conn.) and placed on a stage of an Olympus IX51 inverted microscope (Olympus America, Center Valley, Pa.). Observations were made at room temperature (20-23 degrees Centigrade) with a 20× UApo/340 objective. Neurons were bathed and perfused with HBSS buffer using gravity at a rate of 1-2 ml/min.
# Fluorescence intensity at 505 nm with excitation at 334 nm and 380 nm were captured as digital images (sampling rates from 0.1 to 2 seconds). Regions of interest were identified within the soma from which quantitative measurements were made by re-analysis of stored image sequences using Slidebook® Digital Microscopy software. […]
# [2] = biological target: T2, TRPV1 (Mus musculus, UniProt Q704Y3); assay: capsaicin-induced [Ca++]i transients in DRG neurons, Fura-2 fluorescence imaging, dish-in-dish culture; type: cell-based
# T2 construct: endogenous in cells; host or cells: primary lumbosacral DRG neurons of C57BL/6J mice
# Experimental: as §1, §2, §3, §4, §5, §6, §7
# (§8) Fluorescence intensity at 505 nm with excitation at 334 nm and 380 nm were captured as digital images (sampling rates from 0.1 to 2 seconds). Regions of interest were identified within the soma from which quantitative measurements were made by re-analysis of stored image sequences using Slidebook® Digital Microscopy software. [Ca++]i was determined by ratiometric method of Fura-2 fluorescence from calibration of a series of buffered Ca++ standards. E2 was applied acutely for five minutes onto the experimental chamber.
# Repeated application of drugs was achieved by superfusion into individual neurons in a rapid mixing chamber for specific intervals (100-500 ms). […]
# [3] = tested on: DRG neurons; assay: basal [Ca++]i in DRG neurons, Fura-2 fluorescence imaging; type: cell-based, mouse; conditions: E2 100 nM by itself
# Experimental: as §1
# Lumbosacral adult DRG cells (level L1-S-1) were collected under sterile technique and placed in ice cold medium Dulbecco's Modified Eagle's Medium (DMEM; Sigma-Aldrich, St. Louis, Mo.). […]
# [Ca++]i fluorescence imaging was carried out. […]
# as §8, with “E2 was applied acutely for five minutes onto the experimental chamber.” left out
# All of the data were expressed as the mean±SEM. […]
# [4] = neuroblastoma SH-SY5Y cells in the surround well
# T2 sequence (Q704Y3 whole entry): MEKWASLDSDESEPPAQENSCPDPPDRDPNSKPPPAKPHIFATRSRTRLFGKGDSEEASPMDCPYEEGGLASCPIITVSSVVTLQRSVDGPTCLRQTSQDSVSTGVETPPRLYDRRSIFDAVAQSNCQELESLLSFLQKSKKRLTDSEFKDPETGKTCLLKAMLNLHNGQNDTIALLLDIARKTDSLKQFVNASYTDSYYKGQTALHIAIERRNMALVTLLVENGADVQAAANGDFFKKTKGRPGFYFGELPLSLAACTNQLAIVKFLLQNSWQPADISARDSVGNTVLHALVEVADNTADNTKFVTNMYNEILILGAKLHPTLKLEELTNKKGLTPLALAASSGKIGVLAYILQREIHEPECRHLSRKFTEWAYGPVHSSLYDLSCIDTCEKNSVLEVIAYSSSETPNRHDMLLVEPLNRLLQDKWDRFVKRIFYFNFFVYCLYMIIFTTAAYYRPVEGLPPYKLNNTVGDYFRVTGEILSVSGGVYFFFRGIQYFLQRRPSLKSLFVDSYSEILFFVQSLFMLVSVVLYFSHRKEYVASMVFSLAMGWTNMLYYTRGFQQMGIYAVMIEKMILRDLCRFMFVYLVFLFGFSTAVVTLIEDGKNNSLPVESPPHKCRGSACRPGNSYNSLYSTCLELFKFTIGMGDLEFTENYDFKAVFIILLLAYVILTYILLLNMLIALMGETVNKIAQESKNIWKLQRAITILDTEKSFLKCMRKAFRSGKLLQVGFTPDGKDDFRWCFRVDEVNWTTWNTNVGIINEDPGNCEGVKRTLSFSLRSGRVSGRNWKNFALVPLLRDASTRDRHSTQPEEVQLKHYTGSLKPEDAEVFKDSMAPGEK
compound,measurement,setting,value
"C[C@]12CC[C@@H]3c4ccc(O)cc4CC[C@H]3[C@@H]1CC[C@@H]2O [E2, 17 β-estradiol]",ATP-induced [Ca++]i transient after E2,"[1]; ATP 10 uM after five-minute incubation with E2 (100 nM), mean±SEM, n=5, p<0.05",171.17 ± 48.9 nM
same,reversibility of the effect on ATP-induced [Ca++]i,[1]; E2 100 nM,reversible
same,effect on ATP-induced [Ca++]i transients,"[1]; E2 100 nM, control conditions",attenuated
same,effect of E2 on ATP-induced P2X3-mediated [Ca++]i,[1]; [4],abolished
same,peak of capsaicin-induced [Ca++]i transients with E2,"[2]; capsaicin 100 nM, E2 100 nM applied first, mean±SEM, n=5, p<0.05",175.01 ± 34.8 nM
same,effect on capsaicin-induced TRPV1-mediated [Ca++]i flux,[2]; [4],attenuated
same,effect on basal [Ca++]i,[3],no effect
"C[C@]12CC[C@@H]3c4ccc(O)cc4C[C@@H](CCCCCCCCC[S+]([O-])CCCC(F)(F)C(F)(F)F)[C@H]3[C@@H]1CC[C@@H]2O (some centres unmarked) [ICI 182,780]",effect on the 17 β-estradiol inhibitory effect on ATP-induced [Ca++]i transients,"[1]; ICI 182,780 1 nM",blocked
O=C(O)CN(CC(=O)O)c1ccccc1OCCOc1ccccc1N(CC(=O)O)CC(=O)O [BAPTA],effect on ATP-induced [Ca++]i spikes,"[1]; BAPTA 10 mM, Ca++-free media",eliminated
Oc1cc2c(cc1O)CN(C(=S)NCCc1ccc(Cl)cc1)CCC2 [capsazepine],effect on capsaicin-induced [Ca++]i spikes,"[2]; capsazepine 100 nM, capsaicin 100 nM 3 second",almost completely blocked
Cc1nc(N=Nc2ccc(S(=O)(=O)O)cc2S(=O)(=O)O)c(COP(=O)(O)O)c(C=O)c1O [PPADS],effect on ATP-induced [Ca++]i transients,"[1]; pretreatment with PPADS 5 uM, ATP 10 uM",blocked
COc1cc(CNC(=O)CCCC/C=C/C(C)C)ccc1O [capsaicin],reversibility of the effect of capsaicin,[2],not reversible
same,peak of capsaicin-induced [Ca++]i transients,"[2]; capsaicin 100 nM without E2, control conditions, mean±SEM, n=5",399.21 ± 44.5 nM
same,capsaicin-induced [Ca++]i response with media only in surround well,"[2]; capsaicin 100 nM, SH-SY5Y media without cells in the surround well",as occurred under control conditions
same,capsaicin-induced [Ca++]i response,"[2]; capsaicin 100 nM, neuroblastoma SH-SY5Y cells in the surround well, n=4",145.90 ± 28.84 nM
same,[Ca++]i spikes on capsaicin application,[2]; capsaicin 3 second 100 nM by fast superfusion,produced [Ca++]i spikes
Nc1ncnc2c1ncn2[C@@H]1O[C@H](COP(=O)(O)OP(=O)(O)OP(=O)(O)O)[C@@H](O)[C@H]1O [ATP],[Ca++]i spikes on ATP application,"[1]; 10 second application of ATP 10 uM, DRG neurons in center and surround wells",equal [Ca++]i spikes
same,"ATP-induced [Ca++]i responses, initial stimulation","[1]; ATP 10 uM, DRG neurons exposed to KCL (50 mM) in the surround well, p<0.001",four fold higher
same,ATP-induced [Ca++]i response with media only in surround well,"[1]; ATP 10 uM, SH-SY5Y media without cells in the surround well",as occurred under control conditions
same,ATP-induced [Ca++]i response,"[1]; ATP 10 uM, neuroblastoma SH-SY5Y cells in the surround well, n=4",193 ± 40.6 nM
same,"ATP-induced [Ca++]i responses, subsequent stimulation","[1]; ATP 10 uM, ten minute intervals, DRG neurons exposed to KCL (50 mM) in the surround well, p<0.001",significantly reduced
same,ATP-induced [Ca++]i transient,"[1]; initial ATP (10 uM) response before E2, DRG cells in surround well (control), mean±SEM, n=5",425.86 ± 49.5 nM
same,ATP-stimulated [Ca++]i with KCL media only in surround well,[1]; media with 50 mM KCL without cells in the surround well,as was observed in the control
